Test results published in patent publication EP0123485A1, “Colon-specific prodrug, the preparation and uses thereof” (priority 1983, dated 1984).
Read-outs that look alike come from different tables or passages of the source.

Assays:
[1] = Recovery of steroid glycoside and free steroid from intestinal contents and tissues after intragastric administration; type: in vivo, Sprague-Dawley rats; settings: for Recovery from the cecum / Recovery from the small intestine: average of 4 animals; for animals in which the administered dose reached the cecum by the time of sacrifice: sixteen rats per glucoside, sacrifice at 3-6 h; for site of absorption of the free steroid: free steroid given orally (control experiments, FIGURE 4)
Procedure: Male, Sprague-Dawley rats (ca 250 g) were maintained on laboratory rat chow and water ad lib. These rats were fasted overnight (16 hr.) prior to administration of glucoside or free steroid. Water bottles were removed from the cages at least 30 min prior to drug administration. Prednisolone glucoside, 2, (7.5 mg) or dexamethasone glucoside, 1, (7.5 mg) was administered by gastric intubation as a solution (0.5 mL) of water/95% ethanol (3:1). Prednisolone, 4, (5.25 mg) or dexamethasone, 3, (5.1 mg) was administered as a solution (0.5 mL) of water/95% ethanol (1:1). After the appropriate interval of time -3, 4, 5 or 6 hr.- the animals were sacrificed by carbon dioxide anesthesia followed by thoractomy. The small intestine and cecum were removed and cut into segments. Contents were separated from the tissues by rinsing the segments with cold, 0.9% saline (5.0 mL). The contents were immediately diluted to 30 mL with methanol. The tissues were suspended in 0.01 M KH2P04 (5.0 mL). Then an internal standard, either prednisolone, 4, or dexamethasone, 3, depending on the experimental steroid, was added to all the samples. Both the contents and tissues were then homogenized with a Polytron Homogenizer (Brinkman Inst. Co.) at med. speed for 1-2 min. The contents were then diluted to 40 mL total volume with methanol. The tissues were diluted to 25 mL total volume with methanol. All the samples were centrifuged (5,000 g, 15 min) and then the supernatant solutions were passed through membrane filters (0.45 micrometers, Versapor 800). The samples (1.4 mL) were then diluted with 0.01 M KH2PO4 (0.6 mL) and 20 microliters of the resulting solution injected directly onto the HPLC column for analysis.

[2] = Incubation with homogenized rat feces; type: in vitro ADME
Procedure: Glucosides 1 and 2 (5.0 mg) were also incubated at 37 °C with homogenized rat feces (0.5 g/10 milliliters 0.01 M phosphate buffer, pH 7.5). The feces were obtained from rats maintained on a high cellulose diet. […] Aliquots (0.2 milliliters) were removed and quenched with MeOH (3.66 milliliters). After centrifugation (5,000g, 10 min), the samples were passed through membrane filters (0.45 micrometer pore, Versapor 450, Gelman Sciences, Inc.). They were then diluted (1:1) with 0.01 M KH2PO4. Twenty microliters of the resulting solution were injected directly onto the HPLC column for analysis.

[3] = KM(app) and Vmax determinations (Eadie-Hofstee plots); type: in vitro ADME, rat; settings: prodrug 0.5-48 micromolar, 0.8 mL cecal homogenate, 15 min, 37 C, release of free steroid by HPLC
Procedure: KM(app) and VMax Determinations. The KM(app)-Vmax for the hydrolysis of p-NP-glc and p-NP-gal were determined using pooled cecal homogenates (200 mL) as described above. A range of substrate (56-1000 micromolar; final volume 2.25 mL) concentrations, spanning their apparent KM, was used for each reaction. The amount of cecal homogenate used was 0.04 mL. Velocities were obtained, in duplicate, at 37 °C in a shaking water bath and the reaction stopped by addition of 0.2 N NaOH (0.25 mL) after 15 min. Release of p-nitrophenol was measured spectrophotometrically at 403 nm. Eadie-Hofstee plots were used to determine the KM(app) (micromolar) and Vmax (micromolar/min/g) of both reactions. The wet weight (g), measured immediately after removal and pooling, was used throughout.
Again, cecal contents from four rats were pooled, weighed, diluted (100 mL, 0.01 M phosphate buffer, pH 7.0) and homogenized. A range of substrate concentrations (0.5-48 micromolar, final volume 2.5 mL) spanning the apparent KM, was used for each reaction. The amount of cecal homogenate used was 0.8 mL. Reactions were run, in duplicate, at 37°C in a shaking water bath. After 15 min, the reactions were stopped by removing aliquots (0.3 mL) and quenching them with MeOH (4.7 mL). […] Again, Eadie-Hofstee plots were used to determine the KM(app) and VMax.

[4] = Rate of hydrolysis in homogenized cecal contents; settings: cecal contents; 1.0 mM prodrug, 37 C; release of free steroid by HPLC
Excerpt: (§1) (The entire small intestine was divided into two, equal length segments to give PSI and DSI.) Gastrointestinal contents were obtained from male, Sprague-Dawley rats (300-400 g) which had been maintained on a stock diet (Purina rat chow) and water ad libitum. The intestinal contents of each section were pooled from four animals for each assay. […] Following removal, the contents were quickly weighed, then diluted to 100 milliliters (stomach, PSI, and DSI) or 200 milliliters (cecum) with cold 0.01 M phosphate buffer, pH 7.0. […] Homogenates were then stored on ice (ca 30 min). […] The reaction was run at 37 °C in a shaking water bath. The reaction was stopped after 10, 20, or 30 min by addition of 0.2 N NaOH (0.25 milliliters).
(§2) Stomach and PSI contents were diluted to 50 mL with 0.01 M phosphate buffer, pH 7.0, DSI contents to 25 mL, and cecal contents to 200 mL, prior to homogenization. The homogenates (2.1 mL of stomach, PSI, and DSI and 1.7 mL of cecum) were added to the appropriate substrate solution (0.01 M phosphate buffer, pH 7.0) to give 1.0 mM substrate in a total volume of 2.5 mL. At various times up to 30 min, aliquots (0.3 mL) were removed and quenched with MeOH (4.7 mL). After centrifugation (5,000 g, 10 min), the samples were diluted (1:1) with 0.01 M KH2PO4 and 20 microliters of the resulting solution was injected directly onto the HPLC column for analysis.

[5] = Rate of hydrolysis in homogenized stomach contents; settings: 1.0 mM prodrug, 37 C, release of free steroid by HPLC
[6] = Rate of hydrolysis in homogenized distal small intestine contents; settings: for Sp. act. / Tot. act.: DSI contents, 1.0 mM prodrug, 37 C, release of free steroid by HPLC; for hydrolysis by DSI contents, comparison in words: homogenates of DSI contents
Excerpt: as §1, §2

[7] = Rate of hydrolysis in homogenized proximal small intestine contents; settings: PSI contents; 1.0 mM prodrug, 37 C; release of free steroid by HPLC
physchem = type: physicochemical
Procedure: The partitioning of prodrugs and free steroids between n-octanol and an aqueous phase (0.01 phosphate buffer, pH 7.0) were determined at 37 °C. Both octanol and buffer were saturated with the relevant aqueous or organic phase before use. […] The intitial concentration of steroid was 10 mM dissolved in the organic phase. The amount of glycoside and free steroid in the aqueous phase at equilibrium was measured spectrophotometrically at 239 nm for the dexamethasone and fludrocortisone compounds and 242 nm for the prednisolone and hydrocortisone compounds. The concentration of glycoside or free steroid in the octanol phase was determined by difference.

[8] = system: beta-glucosidase (EC 3.2.1.21, from almonds); test: Hydrolysis by commercial beta-glucosidase; type: biochemical; settings: 37 C, acetate buffer pH 5.0
Procedure: Prednisolone glucoside, 2, (5.0 mg) or dexamethasone glucoside, 1, (5.0 mg) was incubated at 37 °C in an […] acetate buffer, pH 5.0 (10.0 mL) with beta-glucosidase (EC 3.2.1.21, from almonds, one unit liberates 1.0 micromole of glucose from salicin per min at pH 5.0 at 370C). Prednisolone glucoside, 2, and dexamethasone glucoside, 1, were treated with 50 and 500 units of enzyme, respectively. At various times, aliquots (0.1 mL) were removed and quenched with methanol (9.9 mL).

[9] = 4 h after administration of 7.5 mg of glucoside 1
[10] = 5 h after administration of 7.5 mg of glucoside 1
[11] = 6 h after administration of 7.5 mg of glucoside 1
[12] = in vivo, po, rat, 7.5 mg glucoside intragastric, estimated from unhydrolyzed glucoside in lower small intestine at 4 h, read-out: part of an oral dose of glucoside that reached (was delivered to) the cecum
[13] = rat, in vivo, po, 7.5 mg, 4 h after 7.5 mg glucoside, rat, read-out: administered dose recovered from the lower small intestine contents unhydrolyzed

Row | Compound | recovery at 4 h [1, 12] [%] | recovery at 4 h [1, 13] [%] | animals in which the administered dose reached the cecum by the time of sacrifice [1] | Sp. act. [4] [nmoles/min/g wet weight] | Tot. act. [4] [µmol/min] | Sp. act. [5] [nmoles/min/g wet weight] | Tot. act. [5] [µmol/min] | Sp. act. [6] [nmoles/min/g wet weight] | Tot. act. [6] [µmol/min] | hydrolysis by DSI contents, comparison in words [6] | Sp. act. [7] [nmoles/min/g wet weight] | Tot. act. [7] [µmol/min] | further results
1 | CC1CC2C3CCC4=CC(=O)C=CC4(C)C3(F)C(O)CC2(C)C1(O)C(=O)COC1OC(CO)C(O)C(O)C1O [Compound 1, 9 alpha-Fluoro-11 beta, 17 alpha-dihydroxy-16 alpha-methyl-3, 20-dioxopregna-l, 4-dien-21-yl beta-D-glucopyranoside] | ~60 | 59 | eleven of the sixteen animals | 141 | 3.5 | 6.8 | 0.12 | 19.3 | 0.34 | more resistant to hydrolysis than the other prodrugs | 11.0 | 0.07 | Recovery from the cecum ([1]; 3 h after administration of 7.5 mg of glucoside 1): 0.21 mg; Recovery from the small intestine ([1]; 3 h after intragastric administration of 7.5 mg of glucoside 1): 5.61 mg^a; Recovery from the cecum [1, 9]: 0.02 mg; Recovery from the small intestine [1, 9]: 5.00 mg; Recovery from the cecum [1, 10]: 0.23 mg; Recovery from the small intestine [1, 10]: 0.24 mg; Recovery from the cecum [1, 11]: 0.04 mg; Recovery from the small intestine [1, 11]: 0.94 mg; time to reach the colon ([1]; intragastric administration to rats): 4 to 5 h; part of an oral dose of glucoside that reached (was delivered to) the cecum ([1]; rat, 7.5 mg glucoside intragastric, estimated from unhydrolyzed glucoside in lower small intestine at 4 h, listed as glucoside 1): about half of the dose; recovery at 3 h ([1]; rat, in vivo, po, 3 h after oral administration, rat, read-out: dose recovered (intact) from the intestinal lumen): 78%; hydrolysis on incubation with homogenized rat feces ([2]; 37 C, 0.01 M phosphate buffer pH 7.5): extensive hydrolysis; Km ([3]; listed as glucoside 1): 2.5 µM; Vmax ([3]; listed as glucoside 1): 2.2 µM/min/g; Sp. act. ([6]; listed as glucoside 1): 19 nmoles/min/g wet weight; hydrolysis by DSI contents, comparison in words ([6]; listed as glucoside 1): about three times slower
2 | CC12C=CC(=O)C=C1CCC1C2C(O)CC2(C)C1CCC2(O)C(=O)COC1OC(CO)C(OC2OC(CO)C(O)C(O)C2O)C(O)C1O [Compound 13, 11 beta, 17 alpha-Dihydroxy-3, 20-dioxopregna-1,4-diene-21-yl beta-D-cellbioside] |  |  |  | 109 | 2.2 | 7.5 | 0.01 | 32.5 | 0.64 | only half that of glucoside 2 and one-fourth that of galactoside 10 | 26.0 | 0.11 | logD at 0.5 h (physchem; 0.01 m phosphate buffer, pH 7, Log P): -0.56
3 | C[C@]12C=CC(=O)C=C1CC[C@@H]1[C@@H]2[C@@H](O)C[C@@]2(C)[C@H]1CC[C@]2(O)C(=O)CO [Compound 4, 11 beta, 17 alpha-21-Trihydroxy-3, 20-dioxpregna-1,4-diene, reference compound] |  |  |  |  |  |  |  |  |  |  |  |  | site of absorption of the free steroid ([1]; rat): absorbed almost completely from the small intestine; site of absorption of the free steroid ([1]; rat, listed as prednisolone): absorbed almost exclusively from the small intestine; part of the oral dose of free steroid that reached the cecum ([1]; rat, in vivo, po): less than 1%; free steroid recovered in the cecum, as equivalent of the administered dose ([1]; rat, in vivo, po, 5 h): 11%; logD at 0.5 h (physchem; n-octanol / 0.01 M phosphate buffer pH 7.0, 37 C, agitated 30 min, read-out: Log P): 1.55
4 | CC12C=CC(=O)C=C1CCC1C2C(O)CC2(C)C1CCC2(O)C(=O)COC1OC(CO)C(O)C(O)C1O [Compound 2, 11 beta, 17 alpha-Dihydroxy-3, 20-dioxopregna-l, 4-dien-21-yl beta-D-glucopyranoside] | < 15 | 14.8 | eight of sixteen animals | 265 | 6.6 | 6.8 | 0.12 | 56.8 | 1.0 |  | 12.2 | 0.07 | time to reach the colon ([1]; rat, in vivo): 4 to 5 h; relative rate of hydrolysis by commercial beta-glucosidase ([8]; listed as Glucoside 2): several orders of magnitude faster than was glucoside 1; relative rate of hydrolysis by commercial beta-glucosidase ([8]; listed as glucoside 2): much more active towards glucoside 2 than towards glucoside 1; hydrolysis on incubation with homogenized rat feces ([2]; pH 7.5): extensive hydrolysis; Km ([3]; listed as glucoside 2): 4.5 µM; Vmax ([3]; listed as glucoside 2): 2.6 µM/min/g
5 | C[C@]12CCC(=O)C=C1CC[C@@H]1[C@@H]2[C@@H](O)C[C@@]2(C)[C@H]1CC[C@]2(O)C(=O)CO [Compound 6, 11 beta, 17 alpha-21-Trihydroxy-3, 20-dioxopregna-4-ene] |  |  |  |  |  |  |  |  |  |  |  |  | Log P (physchem; n-octanol / 0.01 M phosphate buffer pH 7.0, 37 C, agitated 30 min): 1.54
